Assay results: patent publication US9320280B2, “Methods and compositions for deterring feeding/repelling the brown marmorated stink bug (BMSB), Halyomorpha halys” (The United States of America, as Represented by the …, priority 2012, dated 2016)
Entries after “also recorded” stand apart in the source; their conditions may differ.

Columns and labels:
Halyomorpha halys [1] = test: Optimized closed-air petri dish bioassay: feeding deterrence on green beans; assay type: in vivo; parameters: key to significance of repelling insect from treated bean relative to pentane control: p<0.05 (*); p<0.01 (**); p<0.001 (***); n.s.: compound tested was not significant in repelling insect from treated bean; conditions: for overall repellent effectiveness (conclusion): all age groups and sexes of H. halys
Procedure: Optimized petri dish bioassays: Insects tested were moved in groups from Thermo Forma cages to plastic petri dishes for food and water deprivation 16-20 hours before bioassays. Adults were separated by age and sex and held in groups of five, nymphs were held in groups of 20. Bioassays were conducted from April-June of 2012 between 8 a.m. and 4 p.m., in a fume hood lined with black paper and covered with black curtain to prevent external visual stimuli. The fume hood was illuminated by a single 60 watt light bulb with a light intensity of 800 LUX, placed 50 cm above bio assay arenas, with 26°-28° C. temperature and 50% relative humidity. Glass petri dishes (10 cm diameter) were used for the bioassay arena and were lined with Whatman's #1 filter paper (9 cm) that was changed before each assay. Adults were bioassayed individually. Nymphs were tested in groups of four because in preliminary assays they were observed continually walking for up to four hours unless conspecifics were present.
We then used the optimized solvent (i.e., pentane) to test the effects of different repellents on deterring H. halys feeding on organic green beans in petri dishes. Insects were tested in a glass Petri dish for their attraction/aversion to 1 μg and 100 μg concentrations of isolongifolanone and isolongifolenone (International Flavors and Fragrances, NY), C-13, and E-2-decenal, diluted in pentane. Pure pentane was tested as a control. Whatman's #1 filter paper (9 cm) was placed in petri dish and 2× one-inch diameter impressions were made with a metal circle. One circle was treated with 75 ul of pentane (control) and the other with pentane+repellant (treatment) and dried for five minutes. One-inch sections of organic green beans were placed over the treated or untreated circle. Starved insects were introduced to the petri dish assay arena and observed at three time points in 45 minute increments for 2.25 hours. Their location was recorded as feeding with stylet inserted on the treatment (i.e., odor) bean, blank bean, or off bean (i.e., walking off of food source or no movement in petri dish and not on bean). Individuals were only used for one bioassay at the adult or nymphal stage in their lifetime. Petri dishes were rinsed with water daily and baked overnight at 100° C., and were rinsed with acetone after every six uses.
Optimized petri dish bioassays were analyzed for each age group, sex, and treatment using Likelihood Ratio tests (JMP®). Percent response for each choice per compound was averaged over the three time periods observed. The likelihood of the three choices was set to the level determined by the pentane control for each age/sex group, and the confidence interval set at 95%. P-values are indicated as follows: *=0.05; **=0.01; ***=0.001.

Halyomorpha halys [2] = test: Open-air small cage bioassay: feeding deterrence/repellency on treated peaches and apples; assay type: in vivo; conditions: open-air system
Procedure: Small Cage Bioassays: Nymphs and adults were tested for effects of feeding deterrents/repellents from islongifolanone, islongifolenone, C-13, and E-2-decenal applied to organic peaches and gala apples in a small cage. Insects were starved for 16 hours prior to experiments before being transferred in groups of 15 (nymphs) or 10 (adults male or female) to two gallon containers containing one treated fruit, and observed hourly for the number of nymphs on the fruit. Experiments were conducted in a fume hood under the same light and heat conditions as above. Different concentrations of isolongifolanone, isolongifolenone, C-13, and E-2-decenal were tested both individually and combined (equal amount of each component), with a final concentration of 70-80 mg/fruit chosen as an effective treatment. Compounds (400 mg) were combined with the emulsifier Tween-80 (2 mg), mixed with water (H2O 10 ml) in glass vial (20 ml), and sonicated for 20 min. The solution containing emulsifier Tween-80 (2 mg) in 10 ml water was used as control. […]
Small cage bioassays were analyzed by replicate, treatment, and time using repeated measures ANOVA and multiple comparisons for treatments were tested using Tukeys HSD, Model: Nymphs on Fruit=Treatment, Rep (Treatment), Time, Treatment*Time.

Halyomorpha halys [3] = conditions: for feeding on solvent-treated versus untreated green bean: starved adult males ages 3-7 days, 35 μl of solvent on 1-inch section of green bean
Procedure: We tested the effects of solvent on H. halys survival and feeding behavior to optimize the solvent used in petri dish assays. Mortality of 3rd stage nymphs, and adult males and females (ages 3-7 days or 13-23 days into adult stage), was quantified as the percentage of individuals who died after exposure to methylene chloride (DCM) after 2.25 hours. […] Insects were starved for 16-20 hours prior to being exposed to 1 inch cut sections of organic green beans in a 10 cm petri covered glass petri dish. One bean was coated with […] solvent while the other was untreated. Behaviors of young adult male individuals were recorded at three time points (45, 90, and 135 minutes) as feeding on the blank (untreated) bean, feeding on the odor (solvent-treated) bean, or sitting on the wall of the petri dish. Percent response for each choice was averaged over the three time periods.

[4] = Nymph (3rd stage), starved, 1 μg in pentane on filter paper under green bean
[5] = Nymph (3rd stage), starved, 100 μg in pentane on filter paper under green bean
[6] = Old Adult Male (13-23 days), 1 μg
[7] = Old Adult Male (13-23 days), 100 μg
[8] = Young Adult Male (3-7 days), 1 μg
[9] = Young Adult Male (3-7 days), 100 μg
[10] = starved nymphs (3rd stage), 1 μg, FIG. 6A
[11] = starved nymphs (3rd stage), 100 μg, FIG. 6A
[12] = young adult males (3-7 days), 100 μg, FIG. 6B
[13] = old adult females, 100 μg, FIG. 6E
[14] = young adult females, 100 μg, FIG. 6C

| Compound | significance of repelling insect from treated bean relative to pentane control (Halyomorpha halys [1]; [4]) | significance of repelling insect from treated bean relative to pentane control (Halyomorpha halys [1]; [5]) | significance of repelling insect from treated bean relative to pentane control (Halyomorpha halys [1]; Old Adult Female, 1 μg) | significance of repelling insect from treated bean relative to pentane control (Halyomorpha halys [1]; Old Adult Female, 100 μg) | significance of repelling insect from treated bean relative to pentane control (Halyomorpha halys [1]; [6]) | significance of repelling insect from treated bean relative to pentane control (Halyomorpha halys [1]; [7]) | significance of repelling insect from treated bean relative to pentane control (Halyomorpha halys [1]; Young Adult Female, 1 μg) | significance of repelling insect from treated bean relative to pentane control (Halyomorpha halys [1]; Young Adult Female, 100 μg) | significance of repelling insect from treated bean relative to pentane control (Halyomorpha halys [1]; [8]) | significance of repelling insect from treated bean relative to pentane control (Halyomorpha halys [1]; [9]) | likelihood to feed on treated green bean (in words) (Halyomorpha halys [1]; [11]) | likelihood to feed on treated green bean (in words) (Halyomorpha halys [1]; [12]) | repellency/deterrence across age groups and sexes (summary of Table 1) (Halyomorpha halys [1]; 100 μg concentration) | feeding on solvent-treated versus untreated green bean (Halyomorpha halys [3]) | also measured |
| --- | --- | --- | --- | --- | --- | --- | --- | --- | --- | --- | --- | --- | --- | --- | --- |
| CCCCCCCCCCCCC [C-13, tridecane] | *** (p<0.001 (***)) | ** (p<0.01 (**)) | n.s. | n.s. | n.s. | * (p<0.05 (*)) | n.s. | n.s. | n.s. | * (p<0.05 (*)) | significantly less likely to feed | significantly less likely to feed | – | – | repellency/deterrence across age groups and sexes (summary) (Halyomorpha halys [1]; concentration not given, diluted in pentane): deterrent to young males and old adult males and nymphs; also recorded: deterred H. halys feeding; likelihood to feed on treated green bean (in words) (Halyomorpha halys [1]; old adult males (13-23 days), 1 μg, FIG. 6D): significantly less likely to feed; likelihood to feed on treated green bean (in words) (Halyomorpha halys [1]; [10]): significantly less likely to feed; repellency in small cage tests compared with petri dish (Halyomorpha halys [2]): decreased repellency |
| CCCCCCC/C=C/C=O [E-2-decenal] | ** (p<0.01 (**)) | n.s. | n.s. | * (p<0.05 (*)) | n.s. | * (p<0.05 (*)) | n.s. | n.s. | ** (p<0.01 (**)) | n.s. | – | – | effective at deterring old adult males | – | repellency/deterrence across age groups and sexes (summary of Table 1) (Halyomorpha halys [1]; 1 μg): effective at deterring Nymphs, young adult males, and old adult females; likelihood to feed on treated green bean (in words) (Halyomorpha halys [1]; young adult males (3-7 days), 1 μg, FIG. 6B): significantly less likely to feed |
| CC(C)=O [acetone] | – | – | – | – | – | – | – | – | – | – | – | – | – | significantly less likely to feed | – |
| CCO [ethanol] | – | – | – | – | – | – | – | – | – | – | – | – | – | Less feeding aversion | – |
| CCCCCC [hexane] | – | – | – | – | – | – | – | – | – | – | – | – | – | significantly less likely to feed | – |
| CC1(C)C2=CC(=O)CC(C)(C)[C@]23CC[C@H]1C3 [isolongifolenone] | *** (p<0.001 (***)) | ** (p<0.01 (**)) | n.s. | * (p<0.05 (*)) | n.s. | n.s. | n.s. | *** (p<0.001 (***)) | n.s. | *** (p<0.001 (***)) | significantly less likely to feed | significantly less likely to feed | deterring all groups except for old adult males | – | overall repellent effectiveness (conclusion) (Halyomorpha halys [1]): highly effective repellents; likelihood to feed on treated green bean (in words) (Halyomorpha halys [1]; [13]): significantly less likely to feed; also recorded: deterred; likelihood to feed on treated green bean (in words) (Halyomorpha halys [1]; [10]): significantly less likely to feed; likelihood to feed on treated green bean (in words) (Halyomorpha halys [1]; [14]): significantly less likely to feed; also recorded: deterred |
| ClCCl [methylene chloride (DCM), methylene chloride] | – | – | – | – | – | – | – | – | – | – | – | – | – | significantly less likely to feed | mortality (susceptibility) after exposure to solvent (Halyomorpha halys [3]; 3rd stage nymphs, adult males and females, after 2.25 hours): young adult males were the most susceptible |
| CCCCC [pentane] | – | – | – | – | – | – | – | – | – | – | – | – | – | slight preference for pentane-treated green beans over the untreated control bean | – |
| isolongifolanone | – | *** (p<0.001 (***)) | – | *** (p<0.001 (***)) | – | *** (p<0.001 (***)) | – | *** (p<0.001 (***)) | – | *** (p<0.001 (***)) | significantly less likely to feed | significantly less likely to feed | significantly repellent to all age groups and sexes | – | overall repellent effectiveness (conclusion) (Halyomorpha halys [1]): highly effective repellents; likelihood to feed on treated green bean (in words) (Halyomorpha halys [1]; [13]): significantly less likely to feed; also recorded: deterred; likelihood to feed on treated green bean (in words) (Halyomorpha halys [1]; old adult males (13-23 days), 100 μg, FIG. 6D): significantly less likely to feed; likelihood to feed on treated green bean (in words) (Halyomorpha halys [1]; [14]): significantly less likely to feed; also recorded: deterred |
